# Key:
# Experiment in all cases: radiometric filter-binding kinase assay, Kinase HotSpot
# Conditions in all cases: compound 0.5 µM; ATP 10 µM
# [1] = molecular target: ACVR1B (human) (UniProt P36896)
# [2] = molecular target: BMX (human) (UniProt P51813)
# [3] = molecular target: BRSK1 (human) (UniProt Q8TDC3)
# [4] = molecular target: CAMK2G (human) (UniProt Q13555)
# [5] = molecular target: CDC42BPB (human) (UniProt Q9Y5S2)
# [6] = molecular target: CDK2 CCNE1 (human) (UniProt P24941+P24864)
# [7] = molecular target: CDK6 CCND3 (human) (UniProt P30281+Q00534)
# [8] = molecular target: CDK9 CCNT1 (human) (UniProt P50750+O60563)
# [9] = molecular target: CLK1 (human) (UniProt P49759)
# [10] = molecular target: CLK3 (human) (UniProt P49761)
# [11] = molecular target: CLK4 (human) (UniProt Q9HAZ1)
# [12] = molecular target: CSNK1A1 (human) (UniProt P48729)
# [13] = molecular target: CSNK1G3 (human) (UniProt Q9Y6M4)
# [14] = molecular target: DAPK1 (human) (UniProt P53355)
# [15] = molecular target: DAPK2 (human) (UniProt Q9UIK4)
# [16] = molecular target: DYRK3 (human) (UniProt O43781)
# [17] = molecular target: EPHA4 (human) (UniProt P54764)
# [18] = molecular target: EPHB2 (human) (UniProt P29323)
# [19] = molecular target: EPHB4 (human) (UniProt P54760)
# [20] = molecular target: GRK6 (human) (UniProt P43250)
# [21] = molecular target: IRAK1 (human) (UniProt P51617)
# [22] = molecular target: JAK3 JH1 JH2 (human) (UniProt P52333)
# [23] = molecular target: MAP3K11 (human) (UniProt Q16584)
# [24] = molecular target: MAP3K3 (human) (UniProt Q99759)
# [25] = molecular target: MAP3K8 (human) (UniProt P41279)
# [26] = molecular target: MAP4K4 (human) (UniProt O95819)
# [27] = molecular target: MARK3 (human) (UniProt P27448)
# [28] = molecular target: NTRK1 (human) (UniProt P04629)
# [29] = molecular target: PIM2 (human) (UniProt Q9P1W9)
# [30] = molecular target: PRKCI (human) (UniProt P41743)
# [31] = molecular target: PRKD1 (human) (UniProt Q15139)
# [32] = molecular target: PRKX (human) (UniProt P51817)
# [33] = molecular target: PTK2B (human) (UniProt Q14289)
# [34] = molecular target: RIPK2 (human) (UniProt O43353)
# [35] = molecular target: ROCK1 (human) (UniProt Q13464)
# [36] = molecular target: STK3 (human) (UniProt Q13188)
# [37] = molecular target: STK33 (human) (UniProt Q9BYT3)
# [38] = molecular target: STK39 (human) (UniProt Q9UEW8)
# [39] = molecular target: TNK2 (human) (UniProt Q07912)
# [40] = molecular target: TSSK2 (human) (UniProt Q96PF2)
# [41] = molecular target: TYK2 JH1 catalytic (human) (UniProt P29597)
# [42] = molecular target: ULK2 (human) (UniProt Q8IYT8)
# CDK2 CCNE1 (human), sequence (P24864 whole entry, looked up, other chains not shown): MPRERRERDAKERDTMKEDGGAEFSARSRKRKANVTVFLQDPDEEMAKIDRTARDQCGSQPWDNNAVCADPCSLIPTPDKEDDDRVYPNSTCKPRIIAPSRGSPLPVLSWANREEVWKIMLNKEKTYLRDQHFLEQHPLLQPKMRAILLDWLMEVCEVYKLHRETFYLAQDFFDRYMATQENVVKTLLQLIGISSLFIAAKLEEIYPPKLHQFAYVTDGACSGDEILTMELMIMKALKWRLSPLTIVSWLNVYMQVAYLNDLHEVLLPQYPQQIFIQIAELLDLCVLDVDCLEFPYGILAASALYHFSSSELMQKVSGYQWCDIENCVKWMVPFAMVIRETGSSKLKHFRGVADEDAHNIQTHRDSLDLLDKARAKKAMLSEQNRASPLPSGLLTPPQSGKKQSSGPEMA
# STK33 (human), sequence (Q9BYT3 whole entry, looked up): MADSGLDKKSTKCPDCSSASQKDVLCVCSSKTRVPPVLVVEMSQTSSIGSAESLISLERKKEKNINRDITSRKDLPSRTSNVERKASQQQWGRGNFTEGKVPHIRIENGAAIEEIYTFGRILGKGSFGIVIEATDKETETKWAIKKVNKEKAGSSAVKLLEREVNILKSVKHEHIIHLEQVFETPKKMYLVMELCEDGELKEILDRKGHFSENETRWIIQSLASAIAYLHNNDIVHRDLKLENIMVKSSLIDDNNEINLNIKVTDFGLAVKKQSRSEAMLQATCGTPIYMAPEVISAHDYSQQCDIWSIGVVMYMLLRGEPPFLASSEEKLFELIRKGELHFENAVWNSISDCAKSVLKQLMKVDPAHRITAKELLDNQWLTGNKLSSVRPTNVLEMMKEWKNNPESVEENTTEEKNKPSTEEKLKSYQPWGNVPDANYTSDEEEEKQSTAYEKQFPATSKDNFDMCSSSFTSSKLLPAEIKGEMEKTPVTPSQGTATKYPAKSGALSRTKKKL
# BMX (human), sequence (P51813 whole entry, looked up): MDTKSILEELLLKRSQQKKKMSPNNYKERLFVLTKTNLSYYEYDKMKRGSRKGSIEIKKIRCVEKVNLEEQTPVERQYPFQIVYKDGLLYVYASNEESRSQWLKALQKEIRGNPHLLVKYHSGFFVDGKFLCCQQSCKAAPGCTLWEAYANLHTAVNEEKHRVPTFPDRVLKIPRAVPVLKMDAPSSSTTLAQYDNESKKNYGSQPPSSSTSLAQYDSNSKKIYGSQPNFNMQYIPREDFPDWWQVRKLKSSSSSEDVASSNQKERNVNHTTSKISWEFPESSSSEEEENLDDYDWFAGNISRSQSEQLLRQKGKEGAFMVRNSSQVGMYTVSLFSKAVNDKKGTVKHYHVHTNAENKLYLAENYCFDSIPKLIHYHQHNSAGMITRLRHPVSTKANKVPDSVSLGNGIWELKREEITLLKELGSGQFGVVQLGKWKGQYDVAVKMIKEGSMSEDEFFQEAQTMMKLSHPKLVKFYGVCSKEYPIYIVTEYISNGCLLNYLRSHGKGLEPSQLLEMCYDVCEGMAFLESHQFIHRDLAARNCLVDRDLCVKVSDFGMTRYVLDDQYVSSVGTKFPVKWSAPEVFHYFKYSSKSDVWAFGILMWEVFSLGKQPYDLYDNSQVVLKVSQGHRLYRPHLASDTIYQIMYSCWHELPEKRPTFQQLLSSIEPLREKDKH
# ROCK1 (human), sequence (Q13464 whole entry, looked up): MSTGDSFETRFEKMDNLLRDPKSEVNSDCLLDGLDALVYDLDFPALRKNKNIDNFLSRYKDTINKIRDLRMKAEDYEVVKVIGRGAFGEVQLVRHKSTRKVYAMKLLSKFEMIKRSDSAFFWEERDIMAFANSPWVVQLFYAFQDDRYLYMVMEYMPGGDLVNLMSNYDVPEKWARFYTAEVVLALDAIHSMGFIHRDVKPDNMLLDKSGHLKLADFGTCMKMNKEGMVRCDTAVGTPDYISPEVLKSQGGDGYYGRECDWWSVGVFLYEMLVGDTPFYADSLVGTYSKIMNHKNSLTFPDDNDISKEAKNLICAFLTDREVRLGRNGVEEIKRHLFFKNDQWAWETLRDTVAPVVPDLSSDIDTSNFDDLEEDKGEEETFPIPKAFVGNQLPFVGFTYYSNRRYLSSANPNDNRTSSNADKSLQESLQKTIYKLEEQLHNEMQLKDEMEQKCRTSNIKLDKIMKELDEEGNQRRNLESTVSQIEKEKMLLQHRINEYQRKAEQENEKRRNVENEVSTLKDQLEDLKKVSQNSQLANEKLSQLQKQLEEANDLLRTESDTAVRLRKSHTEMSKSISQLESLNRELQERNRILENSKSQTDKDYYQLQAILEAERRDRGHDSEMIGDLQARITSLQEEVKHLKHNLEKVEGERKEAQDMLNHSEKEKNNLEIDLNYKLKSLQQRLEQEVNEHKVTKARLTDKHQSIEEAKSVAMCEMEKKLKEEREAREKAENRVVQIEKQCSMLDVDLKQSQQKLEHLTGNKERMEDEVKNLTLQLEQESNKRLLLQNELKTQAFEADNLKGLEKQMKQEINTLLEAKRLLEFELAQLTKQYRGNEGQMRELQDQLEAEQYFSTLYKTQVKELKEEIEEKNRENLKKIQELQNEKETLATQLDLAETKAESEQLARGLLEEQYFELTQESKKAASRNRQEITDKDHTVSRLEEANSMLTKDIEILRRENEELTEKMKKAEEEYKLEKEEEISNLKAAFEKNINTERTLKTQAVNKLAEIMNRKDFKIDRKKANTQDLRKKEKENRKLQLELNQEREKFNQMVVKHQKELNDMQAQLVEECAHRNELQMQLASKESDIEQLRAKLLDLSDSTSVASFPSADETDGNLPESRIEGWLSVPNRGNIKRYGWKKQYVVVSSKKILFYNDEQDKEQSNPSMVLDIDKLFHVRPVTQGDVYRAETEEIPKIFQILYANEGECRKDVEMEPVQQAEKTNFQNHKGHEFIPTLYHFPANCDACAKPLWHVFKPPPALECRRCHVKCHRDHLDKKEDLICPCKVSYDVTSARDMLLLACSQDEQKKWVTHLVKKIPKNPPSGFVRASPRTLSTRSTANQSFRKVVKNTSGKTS
# MARK3 (human), sequence (P27448 whole entry, looked up): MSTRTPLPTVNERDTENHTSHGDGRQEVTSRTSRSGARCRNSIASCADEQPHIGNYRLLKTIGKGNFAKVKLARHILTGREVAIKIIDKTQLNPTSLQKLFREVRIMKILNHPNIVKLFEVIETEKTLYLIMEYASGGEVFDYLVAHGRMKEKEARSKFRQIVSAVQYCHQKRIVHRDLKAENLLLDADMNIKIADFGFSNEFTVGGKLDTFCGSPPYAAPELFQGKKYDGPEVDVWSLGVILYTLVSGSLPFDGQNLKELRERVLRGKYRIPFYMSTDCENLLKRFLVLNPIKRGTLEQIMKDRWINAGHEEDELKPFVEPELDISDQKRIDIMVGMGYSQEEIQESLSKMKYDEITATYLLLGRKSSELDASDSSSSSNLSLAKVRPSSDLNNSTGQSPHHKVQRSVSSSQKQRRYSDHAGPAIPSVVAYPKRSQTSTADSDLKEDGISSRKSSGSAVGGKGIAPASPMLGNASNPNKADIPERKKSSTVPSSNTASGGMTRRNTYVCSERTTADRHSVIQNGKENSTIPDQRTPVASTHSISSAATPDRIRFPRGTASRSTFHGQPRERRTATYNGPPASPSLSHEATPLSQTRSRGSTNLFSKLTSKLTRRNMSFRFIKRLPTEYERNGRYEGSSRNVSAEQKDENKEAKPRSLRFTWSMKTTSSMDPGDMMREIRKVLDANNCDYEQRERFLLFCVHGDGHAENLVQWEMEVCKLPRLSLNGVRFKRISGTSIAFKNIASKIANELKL
# CSNK1G3 (human), sequence (Q9Y6M4 whole entry, looked up): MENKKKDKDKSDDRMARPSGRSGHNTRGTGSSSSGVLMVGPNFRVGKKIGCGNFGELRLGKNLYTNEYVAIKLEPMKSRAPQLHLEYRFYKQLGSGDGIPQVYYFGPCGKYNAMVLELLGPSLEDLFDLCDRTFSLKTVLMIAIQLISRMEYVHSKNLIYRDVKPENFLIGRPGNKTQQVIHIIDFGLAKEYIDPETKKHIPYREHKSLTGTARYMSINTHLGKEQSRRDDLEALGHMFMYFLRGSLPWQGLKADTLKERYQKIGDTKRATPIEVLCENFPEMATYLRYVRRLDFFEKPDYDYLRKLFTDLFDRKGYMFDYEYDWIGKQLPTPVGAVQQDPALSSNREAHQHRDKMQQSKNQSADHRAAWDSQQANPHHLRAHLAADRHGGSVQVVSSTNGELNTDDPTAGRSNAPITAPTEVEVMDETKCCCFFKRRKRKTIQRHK
# PRKD1 (human), sequence (Q15139 whole entry, looked up): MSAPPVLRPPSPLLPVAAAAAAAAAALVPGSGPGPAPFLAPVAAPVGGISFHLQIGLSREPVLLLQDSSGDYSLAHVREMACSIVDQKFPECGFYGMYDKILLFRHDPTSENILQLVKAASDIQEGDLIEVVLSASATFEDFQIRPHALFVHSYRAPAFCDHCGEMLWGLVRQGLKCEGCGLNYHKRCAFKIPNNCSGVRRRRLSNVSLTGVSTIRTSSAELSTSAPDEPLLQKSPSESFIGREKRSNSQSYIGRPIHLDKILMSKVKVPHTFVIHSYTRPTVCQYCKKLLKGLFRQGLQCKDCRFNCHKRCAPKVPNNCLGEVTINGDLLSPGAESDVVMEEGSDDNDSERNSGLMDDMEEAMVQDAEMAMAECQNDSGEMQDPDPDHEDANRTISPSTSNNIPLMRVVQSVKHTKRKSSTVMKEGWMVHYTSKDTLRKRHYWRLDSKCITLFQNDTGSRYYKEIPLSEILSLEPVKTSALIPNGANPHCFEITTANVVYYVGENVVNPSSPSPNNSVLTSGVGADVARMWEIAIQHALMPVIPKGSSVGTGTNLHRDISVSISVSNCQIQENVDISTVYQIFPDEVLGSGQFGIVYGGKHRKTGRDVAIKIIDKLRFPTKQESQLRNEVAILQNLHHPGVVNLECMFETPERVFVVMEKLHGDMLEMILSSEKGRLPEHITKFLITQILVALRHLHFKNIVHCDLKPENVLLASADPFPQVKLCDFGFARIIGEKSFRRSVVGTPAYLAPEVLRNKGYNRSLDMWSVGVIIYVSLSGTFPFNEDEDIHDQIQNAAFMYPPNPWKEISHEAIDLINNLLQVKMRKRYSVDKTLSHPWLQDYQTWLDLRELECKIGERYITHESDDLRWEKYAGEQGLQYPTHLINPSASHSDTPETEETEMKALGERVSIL
smiles,measurement,setting,value
CCCNC(=O)Nc1ccc(Oc2ncnc3cc(OC)c(OC)cc23)cc1Cl,residual activity,[1],99.6%
same,residual activity,[2],93.6%
same,residual activity,[3],98.5%
same,residual activity,[4],90.5%
same,residual activity,[5],87.4%
same,residual activity,[6],95.2%
same,residual activity,[7],89.5%
same,residual activity,[8],98%
same,residual activity,[9],96.2%
same,residual activity,[10],98.8%
same,residual activity,[11],94.2%
same,residual activity,[12],98.9%
same,residual activity,[13],105%
same,residual activity,[14],104%
same,residual activity,[15],108%
same,residual activity,[16],99.7%
same,residual activity,[17],93.4%
same,residual activity,[18],90.8%
same,residual activity,[19],89.4%
same,residual activity,[20],95%
same,residual activity,[21],106%
same,residual activity,[22],88.9%
same,residual activity,[23],89.2%
same,residual activity,[24],95.3%
same,residual activity,[25],104%
same,residual activity,[26],86.4%
same,residual activity,[27],95.3%
same,residual activity,[28],93.2%
same,residual activity,[29],101%
same,residual activity,[30],93%
same,residual activity,[31],92.9%
same,residual activity,[32],100%
same,residual activity,[33],88%
same,residual activity,[34],84.8%
same,residual activity,[35],99.7%
same,residual activity,[36],85%
same,residual activity,[37],88.1%
same,residual activity,[38],88%
same,residual activity,[39],96.5%
same,residual activity,[40],98.7%
same,residual activity,[41],95.2%
same,residual activity,[42],89.2%
CC(C)n1cnc2c(Nc3cccc(Cl)c3)nc(NCCO)nc21,residual activity,[1],101%
same,residual activity,[2],92.5%
same,residual activity,[3],93.1%
same,residual activity,[4],106%
same,residual activity,[5],109%
same,residual activity,[6],37.2%
same,residual activity,[7],89.7%
same,residual activity,[8],87.4%
same,residual activity,[9],77.9%
same,residual activity,[10],77.8%
same,residual activity,[11],36.1%
same,residual activity,[12],62.3%
same,residual activity,[13],6.89%
same,residual activity,[14],78.8%
same,residual activity,[15],92.8%
same,residual activity,[16],97.2%
same,residual activity,[17],87.5%
same,residual activity,[18],89.8%
same,residual activity,[19],82%
same,residual activity,[20],88.8%
same,residual activity,[21],101%
same,residual activity,[22],24.7%
same,residual activity,[23],51%
same,residual activity,[24],97.4%
same,residual activity,[25],92.2%
same,residual activity,[26],75.5%
same,residual activity,[27],92.3%
same,residual activity,[28],98.2%
same,residual activity,[29],97%
same,residual activity,[30],101%
same,residual activity,[31],99.2%
same,residual activity,[32],96.4%
same,residual activity,[33],85%
same,residual activity,[34],84.3%
same,residual activity,[35],101%
same,residual activity,[36],94.6%
same,residual activity,[37],68.1%
same,residual activity,[38],100%
same,residual activity,[39],70.8%
same,residual activity,[40],107%
same,residual activity,[41],105%
same,residual activity,[42],89%
Cc1cc2ncc(-c3ccccc3)nc2cc1C,residual activity,[1],97.7%
same,residual activity,[2],90%
same,residual activity,[3],95.1%
same,residual activity,[4],105%
same,residual activity,[5],101%
same,residual activity,[6],91.8%
same,residual activity,[7],86.7%
same,residual activity,[8],93.9%
same,residual activity,[9],95.4%
same,residual activity,[10],92.8%
same,residual activity,[11],96%
same,residual activity,[12],95.4%
same,residual activity,[13],99%
same,residual activity,[14],88.4%
same,residual activity,[15],92.6%
same,residual activity,[16],89.2%
same,residual activity,[17],95.4%
same,residual activity,[18],96.7%
same,residual activity,[19],95.6%
same,residual activity,[20],103%
same,residual activity,[21],114%
same,residual activity,[22],101%
same,residual activity,[23],97.3%
same,residual activity,[24],103%
same,residual activity,[25],106%
same,residual activity,[26],85%
same,residual activity,[27],101%
same,residual activity,[28],105%
same,residual activity,[29],81%
same,residual activity,[30],98%
same,residual activity,[31],100%
same,residual activity,[32],97.9%
same,residual activity,[33],92.1%
same,residual activity,[34],98.3%
same,residual activity,[35],100%
same,residual activity,[36],98.9%
same,residual activity,[37],94.1%
same,residual activity,[38],103%
same,residual activity,[39],98.4%
same,residual activity,[40],87.5%
same,residual activity,[41],97.6%
same,residual activity,[42],108%
O=C1Cc2c([nH]c3ccc([N+](=O)[O-])cc23)-c2ccccc2N1,residual activity,[1],109%
same,residual activity,[2],110%
same,residual activity,[3],39.7%
same,residual activity,[4],94.5%
same,residual activity,[5],83.3%
same,residual activity,[6],19.6%
same,residual activity,[8],22.6%
same,residual activity,[9],111%
same,residual activity,[10],106%
same,residual activity,[11],86.4%
same,residual activity,[12],103%
same,residual activity,[13],90%
same,residual activity,[14],104%
same,residual activity,[15],97.2%
same,residual activity,[16],99.3%
same,residual activity,[17],96.5%
same,residual activity,[18],101%
same,residual activity,[19],87.2%
same,residual activity,[20],93.8%
same,residual activity,[21],93.1%
same,residual activity,[22],99.7%
same,residual activity,[23],11.8%
same,residual activity,[24],100%
same,residual activity,[25],99%
same,residual activity,[26],4.47%
same,residual activity,[27],67.7%
same,residual activity,[28],107%
same,residual activity,[29],113%
same,residual activity,[30],83.3%
same,residual activity,[31],95.6%
same,residual activity,[32],74.5%
same,residual activity,[33],82.9%
same,residual activity,[34],43.4%
same,residual activity,[35],91.2%
same,residual activity,[36],70.3%
same,residual activity,[37],79.9%
same,residual activity,[38],77.5%
same,residual activity,[39],74.9%
same,residual activity,[40],88.3%
same,residual activity,[41],56.5%
same,residual activity,[42],72.7%
